One molecule from patent US20250009791A1, “METHOD FOR PREVENTION AND REDUCTION OF SKIN STASIS WITH COMPOSITIONS AND MATERIALS COMPRISING COPPER COMPOUNDS” (MEDCU TECHNOLOGIES LTD., priority 2018, published 2025) can be followed below.

The structures appear in SMILES notation. Entries after “also recorded” stand apart in the source; their conditions may differ.

Experiment [1] relates to Ki67 stained cells in burned human skin explants. Kind of experiment: Ki67 immunostaining of proliferating keratinocytes at the re-epithelisation area. The settings on record: FIG. 7. The class given is cell-based. As to the method: Immunostaining with Rabbit-anti Ki67 (Abcam, UK) was performed following rehydration, blocking in 2% BSA in PBS for 20 mins, for 2 hours, followed by exposure to Goat Anti-Rabbit IgG H&L (HRP) for one hour and detection by DAB substrate (Abcam, UK). Washes were then performed in 0.025% Tween/PBS. Counterstain was performed with haematoxylin (Sigma, Israel). Images were captured using Zeiss® PrimoVert microscope connected to Motic® Moticam 5+ camera.

In experiment [2] the test system is burn wounds on human skin explants (zone of stasis). Kind of experiment: Burn wound area measurement in ex-vivo human skin explant burn model. The class given is cell-based. The settings on record: for size of the wounds compared with wounds treated with saline only: 0.02 μM copper ions. The procedure:
Human skin was obtained from healthy donors undergoing abdominal dermolipectomy after receiving informed consent. A 0.5 mm split-thickness skin graft was harvested using a dermatome (Aesculap AG & Co. KG, Tuttlingen, Germany) and was cut into 1 cm^2 pieces. Round burn wounds of with a diameter of […] were inflicted in the 0.7 cm^2 skin pieces by exposure to a soldering iron (95° C., 2 Sec). Triplicate pieces were kept intact as naïve controls. The injured and intact skin samples were placed dermis down on a stainless-steel grid and cultured at the air-liquid interface at 37° C. with 5% CO2 in Dulbecco's Modified Eagle's Medium (DMEM), 10% fetal calf serum (Biological Industries, Beit Ha′emek, Israel), and penicillin/streptomycin (100 IU/mL penicillin, […] streptomycin; Invitrogen). Culture medium was refreshed twice a week. The explants were cultured up to 27 days after wounding. Each individual experiment was performed with skin explants obtained from the same individual and the experiments were repeated at least three times. Reference is now made to FIGS. 1a and 1b schematically showing a side view and a top view, respectively, of this ex-vivo explant model. The skin explants are placed dermis down on a stainless-steel grid. Culture media is added to the bottom of the well, without reaching the epidermal layer, which is exposed to the air. […] From the stock solutions, solutions of 0.02 μM or 1 μM of copper ions were prepared in saline. […] Each control and treatment were performed in at least three replicate explants. Skin was obtained from 35-65-year-old healthy patients undergoing abdominoplasty surgery. The patient's under general anesthesia, went standard or circumferential abdominoplasty. After excision of the excess skin, the subcutaneous fat was removed using sterile technique. The defatted full-thickness skin was submerged in culture medium and transferred to the laboratory. The skin was cut into 8×8 mm squares by costume made apparatus. Round 0.8 mm diameter burn wounds were inflicted on the skin explants by exposure to a soldering iron (200° C., 10 Sec). The injured (burnt) and control intact skin samples were placed dermis down and kept at the air-liquid interface at 37° C. with 5% CO2 in Dulbecco's Modified Eagle's Medium supplemented with 100 IU/mL penicillin and […] streptomycin and 10% serum (Biological Industries, Beit Ha′emek, Israel). Culture medium was refreshed every 48 hours, i.e. immediately following injury and then again, every 48 hours, saline only or containing 0.02 μM or 1 μM copper ions were added onto the skin explant burn wounds. The explants were cultured up to 27 days after wounding. Pictures of burns were captured using Motic® Moticam 5+ camera at designated time points. Wound area was measured using ImageJ software suit. […]

The subject of experiment [3] is epidermis of human skin explants. Put plainly: MTT viability assay of the epidermis of skin explants. The class given is cell-based. The conditions noted are these: 0.02 μM or 1 μM copper ions. The procedure: To assess the cell viability throughout the culture period a 3-(4,5-dimethylthiazol-2-yl)-2,5-diphenyltetrazolium bromide (MTT) assay was performed at different days after wounding as follows:
To assess the cell viability throughout the culture period a 3-(4,5-dimethylthiazol-2-yl)-2,5-diphenyltetrazolium bromide (MTT) assay was performed 1, 3, 5, 10, 14, 21 and 27 days, following wounding, as follows: skin explants were incubated for 60 sec in pre-warmed PBS (56° C.). Then the epidermis layer of each replicate was separated from the dermis by grabbing the tissue edge with tweezers and peeling the epidermis off using a scalpel. Epidermal pieces were transferred to 96 well-plate, each well contains 150 μl MTT (Sigma, 0.5 mg/ml) and incubated for 1 hour at 37° C. and reduced light conditions. Then, the epidermis pieces were transferred to a new 96 well-plate containing 150 μl of isopropanol. Plates were placed for 5 min, 200 rpm in a plate shaker (MRC, Beijing, China). Following incubation, epidermis sections were removed, and absorbance was measured at 570 nm in Tecan plate reader (Tecan Group Ltd. Switzerland).

A further experiment relates to IL-8. Kind of experiment: IL-8 secretion into spent medium by ELISA. The class given is cell-based, human. As to the method: (§1) During harvesting time points, the spent medium from all Test Groups was collected and centrifuged at 1500×g for 5 minutes to remove particulates. Media were kept at −80° C. until use. The secretion levels of IL-6, IL-8 and TGF-β were measured by commercial Enzyme-Linked Immunosorbent Assay (ELISA) kits according to manufacturer instructions (Biolegend, San Diego, CA). Briefly, plates were coated for 24 hours prior to assay with a specific anti-human capture antibody. At the day of the assay, coated plates were incubated with samples, followed by washes for unbound molecules. Then additional detection antibody was added and detected by Avidin-HRP solution. Finally, wells were incubated with a substrate solution, while absorbance was measured at 570 nm.
In order to further understand how addition of copper ions affected the skin explants, the amounts of Interleukin 6 (IL-6), Interleukin 8 (IL-8) and transforming growth factor beta (TGF-β) found in the medium of the various treated explants were determined. FIGS. 3a, 3c and 3e show the cytokine expression in burn-induced inflammation in human ex vivo skin and comparison between the IL-6, IL-8 and TGF-β secretion by the untreated skin explants (Naïve Controls) and the wounded skin explants (Burn Controls) following wounding. […]
For orientation: An ELISA detects its analyte on a solid surface through an enzyme-linked reagent.

The subject of a further experiment is TGF-β. Put plainly: TGF-β secretion into spent medium by ELISA. The class given is cell-based, human. The procedure: as §1
In order to further understand how addition of copper ions affected the skin explants, the amounts of Interleukin 6 (IL-6), Interleukin 8 (IL-8) and transforming growth factor beta (TGF-β) found in the medium of the various treated explants were determined. FIGS. 3a, 3c and 3e show the cytokine expression in burn-induced inflammation in human ex vivo skin and comparison between the IL-6, IL-8 and TGF-β secretion by the untreated skin explants (Naïve Controls) and the wounded skin explants (Burn Controls) following wounding. In these figures, the p values of a t-test between the cytokine expressions per a particular day following wounding are shown. Measurements were normalized to amount of cytokine secreted from normal skin and are presented as percent of Naïve control.
Reference is also made to FIGS. 3b, 3d and 3f showing the effect of addition of copper ions (0.02 μM or 1 μM) on secretion of IL-6, IL-8 and TGF-β, respectively, as compared to Naïve Controls and Burn Controls on Day 4 (treated with saline only) (FIGS. 3b and 3d) and on Day 6 (FIG. 3f) after wounding. In the graphs, the star sign “*” indicates the statistically significant difference as compared to the Naïve Controls, while the net sign “#” indicates the statistically significant difference as compared to the untreated (treated with saline only) Burn Controls.

For another experiment, the system named is IL-6. Put plainly: IL-6 secretion into spent medium by ELISA. The class given is cell-based, human. The procedure:
as §1, with “nm. In order to further understand how addition of copper ions affected the skin explants, the amounts of Interleukin 6 (IL-6), Interleukin 8 (IL-8) and transforming growth factor beta (TGF-β) found in the medium of the various treated explants were determined. FIGS. 3a, 3c and 3e show the cytokine expression in burn-induced inflammation in human ex vivo skin and comparison between the IL-6, IL-8 and TGF-β secretion by the untreated skin explants (Naïve Controls) and the wounded skin explants (Burn Controls) following wounding. […]” for “nm.”

The test system of experiment [4] is burned human skin explants. Put plainly: Histology of skin explants (H&E, Masson's trichrome). The class given is cell-based. As to the method: At indicated harvesting time points, skin explants were fixed with 4% formaldehyde for 1 hour at room temperature. Then, the samples were washed twice with PBS and kept at 70% ethanol at 2-8° C. until use. Following dehydration in gradual increasing concentrations of ethanol and embedment, paraffin sections (8 μm) were prepared, pasted on slides and either stained with haematoxylin and eosin (H&E) or Masson trichrome stain, according to the manufacturer specification (Sigma-Aldrich) followed by mounting with DPX mountant (Sigma, Israel).
Examination of tissue formation was performed on day 12 and 27. Sections of Normal and Burned skin, treated or not with copper ions were stained with H&E and Masson's trichrome staining respectively. FIGS. 6a-6c show full length images of sections stained with H&E.

With `[Cu+]` [copper ions], in experiment [1] (0.02 μM copper ions), the “amount of Ki67 stained cells compared to control” value is given as “significantly higher amount of Ki67 stained cells”. Moreover, the “newly proliferating cells stained with Ki67” value in experiment [1] (skin pieces fixed after 12 days) is listed as “significantly more common”. Also, the “size of the wounds compared with wounds treated with saline only” value is “similarly smaller wounds” in experiment [2] (5 and 10 days following wounding); “statistically smaller than the wounds which are treated with saline only” in experiment [2] (three days following wounding). Besides, in experiment [2] (end of the experiment), the “burn size at the end of the experiment” value is recorded as “not massively improved”. The “increase in burn size that occurs after the initial damage” value in experiment [2] (topical application of the ions) is “prevented the increase in burn size”. Further, the “viability of burned skin explants compared with untreated pieces” value in experiment [3] (5 days after burn, differences not statistically significant) is listed as “a trend of increased viability”; in experiment [3] (after 1 day), “remained similar to the untreated pieces”. Besides, the “burn-induced increase of IL-8 compared with Burn Controls” value in the experiment on IL-8 (0.02 μM or 1 μM copper ions from both copper sources, Day 4 (FIG. 3d)) is given as “significantly lower; also recorded: significantly attenuated or abolished”. In addition, the “amount of IL-8 secreted compared with Burn control samples” value in the experiment with IL-8 (Day 1) was “did not differ significantly”. Besides, the “burn-induced increase of TGF-β compared with Burn Controls” value in the experiment on TGF-β (0.02 μM or 1 μM copper ions from both copper sources, Day 4 (FIG. 3f)) is given as “dramatically inhibited; also recorded: significantly attenuated or abolished; also recorded: significantly inhibited”. For the same molecule, the TGF-β level result in the experiment with TGF-β (Day 6 and onwards) is reported as “returning to normal levels”. Also, in the experiment with TGF-β (other examined days), the “TGF-β secretion compared with Burn control samples” value is recorded as “no statistically significant differences”. Further, the “levels of IL-6” value with IL-6 (Day 1 following the burn) is “dramatically elevated in the Burn Controls but not in the copper ion treated samples”. In addition, the “IL-6 levels compared with Burn Control samples” value in the experiment with IL-6 (after Day 4) was “no significant differences in IL-6 levels”. The “re-epithelisation (epithelia regeneration)” value in experiment [4] (0.02 μM and 1 μM copper ions, 12 days, H&E, vs Burn Control) is “Beginning of epithelia regeneration (grey arrows) is seen; also recorded: newly formed epithelia”. For the same molecule, the “detachment of the epidermal tissue from the dermis” value in experiment [4] (0.02 μM or 1 μM copper ions, day 12, H&E, FIGS. 6b and 6c) is given as “less detached of the epidermal tissue from the dermis”. In addition, the re-epithelisation entry in experiment [4] (Day 27, Masson's trichrome, FIG. 4c, vs control samples) was “clear re-epithelisation occurred”. For the same molecule, the “collagen stain / amount of collagen fibers in the dermal layer” value in experiment [4] (Day 27, Masson's trichrome, FIG. 4c, vs saline-treated control) is “an increase in the amount of collagen fibers; also recorded: greater collagen stain”.
